# Data from PubChem BioAssay (NCI).
#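 Tested at 5 concentrations; 48 h exposure; 96-well plates; endpoints linearly interpolated, else capped at highest concentration. TGI is the concentration that stops growth completely.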
# System: HOP-62 NSCLC
# Assay: growth of human tumour cells (NCI), 48 h
row,Compound,TGI [µM]
1,CC(CCOc1c2ccoc2cc2oc(=O)ccc12)C1=CC(=O)C(C)(C)O1 (centres undefined),> 100
2,O=C1c2ccccc2-c2nc(-c3ccncc3)cc3c2c1nc1ccccc13,25.3
3,CC(=O)OC1CC2CC(=O)CC1N2C (centres undefined),> 100

# System: HOP-92 NSCLC
# Assay: growth of human tumour cells (NCI), 48 h
row,Compound,TGI [µM]
1,Cc1ccc(NC(=O)/C(CC2N=c3c(ccc4c(O)c5ccccc5c(O)c34)=NC2O)=N/NC(C)(C)C)cc1 (centres undefined),56.5
2,COc1ccc(-c2csc(-n3c(-c4ccccc4)nc4c(Br)cc(Br)cc4c3=O)n2)cc1,46.7
3,CC(CCOc1c2ccoc2cc2oc(=O)ccc12)C1=CC(=O)C(C)(C)O1 (centres undefined),> 100
4,O=C1c2ccccc2-c2nc(-c3ccncc3)cc3c2c1nc1ccccc13,> 100
5,CC(=O)OC1CC2CC(=O)CC1N2C (centres undefined),> 100

# System: HS 578T breast
# Assay: growth of human tumour cells (NCI), 48 h
row,Compound,TGI [µM]
1,Cc1ccc(NC(=O)/C(CC2N=c3c(ccc4c(O)c5ccccc5c(O)c34)=NC2O)=N/NC(C)(C)C)cc1 (centres undefined),54.8
2,COc1ccc(-c2csc(-n3c(-c4ccccc4)nc4c(Br)cc(Br)cc4c3=O)n2)cc1,> 100
3,CC(CCOc1c2ccoc2cc2oc(=O)ccc12)C1=CC(=O)C(C)(C)O1 (centres undefined),> 100
4,CC(=O)OC1CC2CC(=O)CC1N2C (centres undefined),> 100

# System: HT29 colon
# Assay: growth of human tumour cells (NCI), 48 h
row,Compound,TGI [µM]
1,Cc1ccc(NC(=O)/C(CC2N=c3c(ccc4c(O)c5ccccc5c(O)c34)=NC2O)=N/NC(C)(C)C)cc1 (centres undefined),43
2,COc1ccc(-c2csc(-n3c(-c4ccccc4)nc4c(Br)cc(Br)cc4c3=O)n2)cc1,> 100
3,CC(CCOc1c2ccoc2cc2oc(=O)ccc12)C1=CC(=O)C(C)(C)O1 (centres undefined),> 100
4,O=C1c2ccccc2-c2nc(-c3ccncc3)cc3c2c1nc1ccccc13,> 100
5,CC(=O)OC1CC2CC(=O)CC1N2C (centres undefined),> 100

# System: IGROV1 ovarian
# Assay: growth of human tumour cells (NCI), 48 h
row,Compound,TGI [µM]
1,Cc1ccc(NC(=O)/C(CC2N=c3c(ccc4c(O)c5ccccc5c(O)c34)=NC2O)=N/NC(C)(C)C)cc1 (centres undefined),83.5
2,COc1ccc(-c2csc(-n3c(-c4ccccc4)nc4c(Br)cc(Br)cc4c3=O)n2)cc1,> 100
3,CC(CCOc1c2ccoc2cc2oc(=O)ccc12)C1=CC(=O)C(C)(C)O1 (centres undefined),> 100
4,O=C1c2ccccc2-c2nc(-c3ccncc3)cc3c2c1nc1ccccc13,52.8
5,CC(=O)OC1CC2CC(=O)CC1N2C (centres undefined),> 100

# System: K-562 leukemia
# Assay: growth of human tumour cells (NCI), 48 h
row,Compound,TGI [µM]
1,COc1ccc(-c2csc(-n3c(-c4ccccc4)nc4c(Br)cc(Br)cc4c3=O)n2)cc1,58.7
2,CC(CCOc1c2ccoc2cc2oc(=O)ccc12)C1=CC(=O)C(C)(C)O1 (centres undefined),> 100
3,O=C1c2ccccc2-c2nc(-c3ccncc3)cc3c2c1nc1ccccc13,> 100
4,CC(=O)OC1CC2CC(=O)CC1N2C (centres undefined),> 100

# System: KM12 colon
# Assay: growth of human tumour cells (NCI), 48 h
row,Compound,TGI [µM]
1,Cc1ccc(NC(=O)/C(CC2N=c3c(ccc4c(O)c5ccccc5c(O)c34)=NC2O)=N/NC(C)(C)C)cc1 (centres undefined),> 100
2,COc1ccc(-c2csc(-n3c(-c4ccccc4)nc4c(Br)cc(Br)cc4c3=O)n2)cc1,> 100
3,CC(CCOc1c2ccoc2cc2oc(=O)ccc12)C1=CC(=O)C(C)(C)O1 (centres undefined),> 100
4,O=C1c2ccccc2-c2nc(-c3ccncc3)cc3c2c1nc1ccccc13,47.7
5,CC(=O)OC1CC2CC(=O)CC1N2C (centres undefined),> 100

# System: LOX IMVI melanoma
# Assay: growth of human tumour cells (NCI), 48 h
row,Compound,TGI [µM]
1,Cc1ccc(NC(=O)/C(CC2N=c3c(ccc4c(O)c5ccccc5c(O)c34)=NC2O)=N/NC(C)(C)C)cc1 (centres undefined),25.3
2,COc1ccc(-c2csc(-n3c(-c4ccccc4)nc4c(Br)cc(Br)cc4c3=O)n2)cc1,> 100
3,CC(CCOc1c2ccoc2cc2oc(=O)ccc12)C1=CC(=O)C(C)(C)O1 (centres undefined),> 100
4,O=C1c2ccccc2-c2nc(-c3ccncc3)cc3c2c1nc1ccccc13,> 100
5,CC(=O)OC1CC2CC(=O)CC1N2C (centres undefined),> 100

# System: M14 melanoma
# Assay: growth of human tumour cells (NCI), 48 h
row,Compound,TGI [µM]
1,Cc1ccc(NC(=O)/C(CC2N=c3c(ccc4c(O)c5ccccc5c(O)c34)=NC2O)=N/NC(C)(C)C)cc1 (centres undefined),73.6
2,COc1ccc(-c2csc(-n3c(-c4ccccc4)nc4c(Br)cc(Br)cc4c3=O)n2)cc1,96.4
3,CC(CCOc1c2ccoc2cc2oc(=O)ccc12)C1=CC(=O)C(C)(C)O1 (centres undefined),> 100
4,O=C1c2ccccc2-c2nc(-c3ccncc3)cc3c2c1nc1ccccc13,17
5,CC(=O)OC1CC2CC(=O)CC1N2C (centres undefined),> 100

# System: MALME-3M melanoma
# Assay: growth of human tumour cells (NCI), 48 h
row,Compound,TGI [µM]
1,COc1ccc(-c2csc(-n3c(-c4ccccc4)nc4c(Br)cc(Br)cc4c3=O)n2)cc1,59.2
2,CC(CCOc1c2ccoc2cc2oc(=O)ccc12)C1=CC(=O)C(C)(C)O1 (centres undefined),> 100
3,O=C1c2ccccc2-c2nc(-c3ccncc3)cc3c2c1nc1ccccc13,22.4
4,CC(=O)OC1CC2CC(=O)CC1N2C (centres undefined),> 100

# System: MCF7 breast
# Assay: growth of human tumour cells (NCI), 48 h
row,Compound,TGI [µM]
1,Cc1ccc(NC(=O)/C(CC2N=c3c(ccc4c(O)c5ccccc5c(O)c34)=NC2O)=N/NC(C)(C)C)cc1 (centres undefined),> 100
2,COc1ccc(-c2csc(-n3c(-c4ccccc4)nc4c(Br)cc(Br)cc4c3=O)n2)cc1,> 100
3,CC(CCOc1c2ccoc2cc2oc(=O)ccc12)C1=CC(=O)C(C)(C)O1 (centres undefined),> 100
4,O=C1c2ccccc2-c2nc(-c3ccncc3)cc3c2c1nc1ccccc13,> 100
5,CC(=O)OC1CC2CC(=O)CC1N2C (centres undefined),> 100

# System: MDA-MB-231 breast
# Assay: growth of human tumour cells (NCI), 48 h
row,Compound,TGI [µM]
1,Cc1ccc(NC(=O)/C(CC2N=c3c(ccc4c(O)c5ccccc5c(O)c34)=NC2O)=N/NC(C)(C)C)cc1 (centres undefined),18.8
2,COc1ccc(-c2csc(-n3c(-c4ccccc4)nc4c(Br)cc(Br)cc4c3=O)n2)cc1,> 100
3,CC(CCOc1c2ccoc2cc2oc(=O)ccc12)C1=CC(=O)C(C)(C)O1 (centres undefined),> 100
4,O=C1c2ccccc2-c2nc(-c3ccncc3)cc3c2c1nc1ccccc13,> 100
5,CC(=O)OC1CC2CC(=O)CC1N2C (centres undefined),> 100

# System: MDA-MB-435
# Assay: growth of human tumour cells (NCI), 48 h
row,Compound,TGI [µM]
1,Cc1ccc(NC(=O)/C(CC2N=c3c(ccc4c(O)c5ccccc5c(O)c34)=NC2O)=N/NC(C)(C)C)cc1 (centres undefined),> 100
2,COc1ccc(-c2csc(-n3c(-c4ccccc4)nc4c(Br)cc(Br)cc4c3=O)n2)cc1,75.4
3,CC(CCOc1c2ccoc2cc2oc(=O)ccc12)C1=CC(=O)C(C)(C)O1 (centres undefined),> 100
4,O=C1c2ccccc2-c2nc(-c3ccncc3)cc3c2c1nc1ccccc13,29.5
5,CC(=O)OC1CC2CC(=O)CC1N2C (centres undefined),> 100

# System: MDA-N
# Assay: growth of human tumour cells (NCI), 48 h
row,Compound,TGI [µM]
1,Cc1ccc(NC(=O)/C(CC2N=c3c(ccc4c(O)c5ccccc5c(O)c34)=NC2O)=N/NC(C)(C)C)cc1 (centres undefined),> 100
2,COc1ccc(-c2csc(-n3c(-c4ccccc4)nc4c(Br)cc(Br)cc4c3=O)n2)cc1,67.7
3,CC(CCOc1c2ccoc2cc2oc(=O)ccc12)C1=CC(=O)C(C)(C)O1 (centres undefined),> 100
4,O=C1c2ccccc2-c2nc(-c3ccncc3)cc3c2c1nc1ccccc13,41.9
5,CC(=O)OC1CC2CC(=O)CC1N2C (centres undefined),> 100

# System: MOLT-4 leukemia
# Assay: growth of human tumour cells (NCI), 48 h
row,Compound,TGI [µM]
1,Cc1ccc(NC(=O)/C(CC2N=c3c(ccc4c(O)c5ccccc5c(O)c34)=NC2O)=N/NC(C)(C)C)cc1 (centres undefined),22.6
2,COc1ccc(-c2csc(-n3c(-c4ccccc4)nc4c(Br)cc(Br)cc4c3=O)n2)cc1,> 100
3,CC(CCOc1c2ccoc2cc2oc(=O)ccc12)C1=CC(=O)C(C)(C)O1 (centres undefined),> 100
4,O=C1c2ccccc2-c2nc(-c3ccncc3)cc3c2c1nc1ccccc13,44.4
